Series [1] is described as follows: HEp-2 cell cytotoxicity, dose response, cytotoxicity control for RSV inhibitor project, HTS (AID 2410). The note with it: human respiratory syncytial virus. The format is functional.
A short description of series [2]: inhibitors of intracellular T. cruzi replication, confirmation, NIH3T3 host cells, beta-gal luminescence (AID 2044).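 Further: intracellular parasites grown in NIH/3T3 mouse fibroblasts as host cells; luminescent beta-galactosidase reporter signal from transgenic T. cruzi replicating inside host cells; inhibitors lower the luminescence signal.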 The format is functional, cell-based.
Series [3] in a line: cytotoxicity toward NIH3T3 fibroblasts, dose response, counter-screen, cell-based, ATP luminescence, mouse fibroblasts (AID 2010).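 Further: cells exposed to compound for about 90 hours before reading.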 The format is functional. (The purpose of a counterscreen is to sort out artefacts and off-target activity.)
A further series deals with Cytochrome P450 3A4 (Homo sapiens, UniProt P08684).
Cytochrome P450 3A4, sequence (P08684 whole entry): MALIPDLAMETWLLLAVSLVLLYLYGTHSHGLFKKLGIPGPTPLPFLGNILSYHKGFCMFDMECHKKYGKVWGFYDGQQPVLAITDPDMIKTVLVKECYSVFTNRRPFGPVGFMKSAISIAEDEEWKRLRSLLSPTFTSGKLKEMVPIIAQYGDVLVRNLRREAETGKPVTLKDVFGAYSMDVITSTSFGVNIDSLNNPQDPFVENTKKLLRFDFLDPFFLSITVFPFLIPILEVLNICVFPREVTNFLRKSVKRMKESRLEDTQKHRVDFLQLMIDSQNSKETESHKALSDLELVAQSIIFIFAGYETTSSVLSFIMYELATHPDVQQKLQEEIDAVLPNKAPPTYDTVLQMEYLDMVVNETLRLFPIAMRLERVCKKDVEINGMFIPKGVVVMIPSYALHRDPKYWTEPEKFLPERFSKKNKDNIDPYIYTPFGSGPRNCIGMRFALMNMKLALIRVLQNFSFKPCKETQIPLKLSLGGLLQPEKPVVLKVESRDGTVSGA
Another series concerns the target Cytochrome P450 2C19 (Homo sapiens, UniProt P33261). The series can be described thus: Cytochrome panel assay with activity outcomes. Panel member name: p450-cyp2c19 Compounds with AC50 equal or less than 10 uM are considered active. The format is functional.
Series [4] deals with T1, Corticotropin-releasing factor receptor 2/Corticotropin-releasing factor-binding protein (Homo sapiens, UniProt P24387+Q13324).
T1 sequence (Q13324 whole entry): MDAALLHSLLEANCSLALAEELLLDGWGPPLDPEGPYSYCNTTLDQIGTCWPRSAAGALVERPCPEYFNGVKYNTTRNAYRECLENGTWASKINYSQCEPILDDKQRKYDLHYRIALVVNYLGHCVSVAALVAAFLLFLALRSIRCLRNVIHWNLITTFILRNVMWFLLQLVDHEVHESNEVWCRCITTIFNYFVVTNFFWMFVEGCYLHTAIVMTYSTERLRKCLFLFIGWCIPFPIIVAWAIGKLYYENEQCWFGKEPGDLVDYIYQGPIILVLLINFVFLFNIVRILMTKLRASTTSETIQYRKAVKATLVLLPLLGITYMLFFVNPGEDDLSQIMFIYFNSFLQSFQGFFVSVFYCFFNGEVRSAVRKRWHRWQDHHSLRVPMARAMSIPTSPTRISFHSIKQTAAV
T1 sequence (P24387 whole entry): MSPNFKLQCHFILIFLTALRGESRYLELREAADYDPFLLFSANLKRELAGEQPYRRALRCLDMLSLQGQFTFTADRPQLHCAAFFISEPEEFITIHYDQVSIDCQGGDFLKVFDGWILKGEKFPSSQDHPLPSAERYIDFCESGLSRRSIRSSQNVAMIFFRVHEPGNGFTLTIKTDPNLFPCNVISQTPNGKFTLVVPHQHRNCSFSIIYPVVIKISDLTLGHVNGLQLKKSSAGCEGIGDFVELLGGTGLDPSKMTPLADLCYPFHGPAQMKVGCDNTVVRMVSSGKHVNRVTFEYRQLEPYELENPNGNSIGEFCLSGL
Kind of series: activators of CRF receptor 2 with binding protein – uHTS hits, confirmation (AID 602473). The note with it: read-out: EC50_Mean. It counts as functional.

The subject of a further series is H4. The series can be described thus: Luminescence Cell-Based Dose Response HTS to Identify Activators of 5'UTR Stem-Loop Driven Prion Protein mRNA Translation in H4 Neuroglioblastoma Cells. [Related pubchem assays: 1829 (Project Summary), 1814 (Primary HTS)]. It counts as functional. The conditions noted are these: Homo sapiens.
A short description of series [5]: Luminescence Cell-Based Dose Response HTS to Identify Activators of Luciferase Translation or Activity in H4 […] Cells. [Related pubchem assays: 1829 (Project Summary), 1814 (Primary HTS)]. It counts as functional.

Active and inactive are the calls of the source.

Cytochrome P450 2C19, sequence (P33261 whole entry): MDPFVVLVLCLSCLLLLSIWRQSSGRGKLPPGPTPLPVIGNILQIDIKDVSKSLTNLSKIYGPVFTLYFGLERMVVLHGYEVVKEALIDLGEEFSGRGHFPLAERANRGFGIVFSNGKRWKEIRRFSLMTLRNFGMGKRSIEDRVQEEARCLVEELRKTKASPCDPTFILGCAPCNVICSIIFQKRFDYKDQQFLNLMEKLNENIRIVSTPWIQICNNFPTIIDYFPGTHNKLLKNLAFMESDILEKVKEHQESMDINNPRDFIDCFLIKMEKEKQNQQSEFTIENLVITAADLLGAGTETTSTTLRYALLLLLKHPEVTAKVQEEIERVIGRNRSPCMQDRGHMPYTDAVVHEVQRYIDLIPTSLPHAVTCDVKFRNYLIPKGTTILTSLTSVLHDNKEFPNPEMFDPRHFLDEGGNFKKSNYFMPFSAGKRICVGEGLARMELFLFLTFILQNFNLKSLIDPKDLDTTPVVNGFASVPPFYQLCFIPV

Turning to `CC(C)OC(=O)c1ccc(N2CCN(c3ccc(F)cc3)CC2)nc1`, the CC50 – broadly, the concentration at which the toxic effect on the cells reaches its halfway point – in series [1] is 14.8 µM (active).
Regarding `CCn1c(NCc2cc(Br)ccc2NS(=O)(=O)c2ccc(C)cc2)nc2ccccc21`, the EC50 in series [2] was 2.61 µM (active); in series [3] it was > 60 µM (not active).
For `COC(=O)Nc1nc(-c2cc(Cl)ccc2Cl)cs1`, the EC50 is 0.572 µM (active) in series [2] and > 60 µM (not active) in series [3].
In the case of `CN(Cc1ccco1)c1nc(-c2ccccc2C(F)(F)F)nc2ccccc12`, the AC50 – broadly, the concentration giving half of the maximal activity seen – on Cytochrome P450 3A4 was 12.6 µM (inconclusive).
Consider `CCn1nc(NC(=O)COC)c2cc3cccc(C)c3nc21`, for which, in series [1], the CC50 is > 50 µM (active).
For the molecule `COC(=O)c1ccc(NC(S)=Nc2ccccn2)cc1`, the 50% cytotoxic concentration (CC50) in series [1] is 41.6 µM (active).
On to `CCCCCSc1nncc(O)n1`, for which the AC50 at Cytochrome P450 2C19 (read-out: AC50) is 39.8 µM (inconclusive).
For the molecule `Cc1c(CN2CCC(CO)(Cc3ccccc3)CC2)c2ccccc2n1C`, the results for the EC50 in series [2] and in series [3] were 2.4 µM (active) and 9.85 µM (active), respectively.
For the molecule `COc1ccccc1NC(=O)N(Cc1ccco1)Cc1cc2cc(C)cc(C)c2nc1O`, the CC50 in series [1] was 3.83 µM (active).
In the case of `CC1(C)CC(=O)C([C@H]2C3=C(CC(C)(C)CC3=O)Oc3ccccc32)C(=O)C1`, on Cytochrome P450 3A4, the AC50 is 15.8 µM (inconclusive).
With `CO[C@@H]1/C=C\O[C@]2(C)Oc3c(C)c(O)c4c(O)c(cc(O)c4c3C2=O)NC(=O)/C(C)=C\C=C/[C@H](C)[C@@H](O)[C@H](C)[C@H](O)[C@H](C)[C@H](OC(C)=O)[C@@H]1C`, at Cytochrome P450 3A4, the AC50 was 3.98 µM (inconclusive).
As for `CCn1nc(C)c(NC(=O)/C=C/c2ccc(OC)c(COc3ccc(Cl)cc3Br)c2)c1C`, the EC50 in series [2] was 0.736 µM (active); in series [3] it was > 60 µM (not active).
For `COc1cc(SC)ccc1C(=O)NCCc1c[nH]c2ccccc12`, the CC50 in series [1] was 19.9 µM (active).
Turning to `CCN1CCc2c(C#N)c(NCc3ccccc3)nc(N(CC)CC)c2C1`, the EC50 was 0.426 µM (active) in series [2] and > 15 µM (not active) in series [3].
For the molecule `Cn1c(=O)c(-c2cc(F)cc(F)c2)nc2cncnc21`, on Cytochrome P450 3A4, the AC50 was 1.26 µM (inconclusive).
For `N#C/C(=C/C=C/c1ccccc1)C(=O)Nc1ccccc1`, the EC50 is 8.82 µM (active) in series [2] and > 60 µM (not active) in series [3].
As for `C=C1CCC[C@]2(C)C[C@H]3OC(=O)C(CN(C)CC(OC)OC)[C@H]3CC12` (some centres undefined), in series [1], the 50% cytotoxic concentration (CC50) was 11.4 µM (active).
For `COc1ccc(C2C(C(=O)c3ccc4c(c3)CC(C)O4)=C(O)C(=O)N2CCN2CCOCC2)cc1` (centres undefined), the AC50 is 28.2 µM (inconclusive) at Cytochrome P450 3A4 and “inconclusive” on Cytochrome P450 2C19.
Turning to `CCc1ccccc1OCC(=O)Nc1ccc2c(c1)OCCO2`, the CC50 in series [1] is 35.6 µM (active).
With `Cc1noc(C)c1-c1nccc(N2CCOCC2)n1`, on Cytochrome P450 2C19 (read-out: AC50), the AC50 is 10 µM (inconclusive).
For the molecule `Cc1ccn2cc(-c3cccc(NC(=O)c4cccs4)c3)nc2c1`, the CC50 in series [1] is 26.1 µM (active).
Regarding `Brc1ccc(C2=Nn3cnnc3SC2)cc1`, the CC50 in series [1] was 27.9 µM (active).
In the case of `CC(=O)Nc1ccc(-c2csc(NCCc3ccccc3)n2)cc1`, in series [1], the CC50 was 41.3 µM (active).
For `COc1ccc(S(=O)(=O)N2CCCCCC2)cc1C(=O)N(C)Cc1ccc(Cl)cc1Cl`, the EC50 in series [4] was 5 µM (active).
As for `Cc1ccccc1C(=O)Oc1ccc(Br)cc1C(=S)N1CCCC1`, the AC50 on Cytochrome P450 3A4 is 8.91 µM (inconclusive).
In the case of `CC(C)(C)c1ccc(OCC(=O)O)c(Cl)c1`, the AC50 entry at Cytochrome P450 2C19 is “inconclusive”.
For `Cc1nc(C(=O)NC2CCCCC2)sc1C1(C)CC(c2cccnc2)=NO1` (centres undefined), the results for the EC50 in series [2] and in series [3] were 1.3 µM (active) and > 60 µM (not active), respectively.
Regarding `COc1ccc2cc(CN(Cc3cccnc3)Cc3nnnn3Cc3ccccc3)c(O)nc2c1`, the EC50 in series [2] was 0.554 µM (active); in series [3], > 60 µM (not active).
For the molecule `CN1CCN(CCCNC(=O)c2ccc(CSCc3cccc(Cl)c3)o2)CC1`, the AC50 on Cytochrome P450 3A4 is 22.4 µM (inconclusive).
As to `c1ccc2c[n+](Cc3ccnc4ccccc34)ccc2c1`, the AC50 at Cytochrome P450 3A4 was 1.26 µM (inconclusive).
Turning to `O=C(NCCOc1ccccc1F)c1cccc(S(=O)(=O)N2CCN(c3ccccc3)CC2)c1`, in series [1], the CC50 was 22.2 µM (active).
As to `CNc1ccnc(-c2ccccc2C)n1`, the figures for the AC50 at Cytochrome P450 3A4 and on Cytochrome P450 2C19 (read-out: AC50) were 15.8 µM (inconclusive) and 31.6 µM (inconclusive), respectively.
As for `CC[C@@H]1OC(=O)[C@H](C)[C@H](O[C@@H]2C[C@](C)(OC)[C@H](O)[C@H](C)O2)[C@H](C)[C@H](O[C@@H]2O[C@@H](C)C[C@@H](N(C)C)[C@@H]2O)[C@](C)(O)C[C@H](C)C(=NOCOCCOC)[C@H](C)[C@H](O)[C@]1(C)O`, the AC50 on Cytochrome P450 3A4 was 12.6 µM (inconclusive).
`COc1ccc(F)cc1C(=O)C1CCCN(Cc2cnc(N3CCCC3)s2)C1` (centres undefined): the EC50 in series [2] is 0.303 µM (active); in series [3] it was > 60 µM (not active).
As to `Cn1c(N)c(C(=O)Nc2ccc3ccccc3c2)sc1=S`, the values for the EC50 (with H4; in series [5]) were 0.279 µM (active) and 0.117 µM (active), respectively.
For the molecule `Cc1ccc(-c2csc3ncnc(NCCN4CCOCC4)c23)cc1`, the AC50 at Cytochrome P450 3A4 is 1.12 µM (inconclusive).
Regarding `O=C(Nc1ccc(Br)cc1)c1c[nH]cn1`, the EC50 with H4 was 28.8 µM (active); in series [5] it was 34.8 µM (active).
Take `C=CC[N+]1(CC#CCOC(c2ccccc2)c2ccccc2)CCOCC1.[Cl-]`: the AC50 entry on Cytochrome P450 2C19 is recorded as “inconclusive”.
With `O=C(Cn1cnc2ccccc21)NC(c1ccccc1)c1ccccc1`, the AC50 on Cytochrome P450 2C19 (read-out: AC50) is 20 µM (inconclusive).
`CCOC(=O)c1sc2nc3n(c(=O)c2c1C)CCC(C)CC3` (centres undefined): the CC50 in series [1] is 38.3 µM (active).
On to `Cc1cc2c(cc1S(=O)(=O)CCC(=O)NC1CCCCC1C)OCC(=O)N2` (centres undefined), for which the EC50 in series [4] is > 53 µM (inactive).
Regarding `O=[N+]([O-])c1ccc(S(=O)(=O)NCC(c2ccco2)N2CCc3ccccc3C2)cc1` (centres undefined), the figures for the EC50 in series [2] and in series [3] were 1.86 µM (active) and > 60 µM (not active), respectively.
Regarding `CC1CCN(C(=O)CSc2nc3ccccc3c(=O)n2Cc2ccc3c(c2)OCO3)CC1`, the CC50 in series [1] is 33.5 µM (active).
Take `C[C@H]1O[C@@H](O[C@H]2CC[C@@]3(C)C(CC[C@]4(C)C3C=C[C@]35OC[C@@]6(CCC(C)(C)C[C@H]63)[C@@H](O)C[C@]54C)[C@]2(C)CO)[C@H](O)[C@@H](O[C@@H]2O[C@H](CO)[C@@H](O)[C@H](O)[C@H]2O)[C@H]1O` (some centres undefined): in series [4], the EC50 was 9.4 µM (active).
Turning to `CCOC(=O)c1cn(Cc2ccccc2)c(C(=O)OC(C)(C)C)c1O`, the EC50 in series [4] was 5.22 µM (active).
For the molecule `CCCCCCc1cc2cc(C(=N)NNC(=O)c3ccncc3)c(=O)oc2cc1O`, the EC50 in series [4] is 1.11 µM (active).
In the case of `O=[N+]([O-])c1ccccc1/C=C/C=N/Nc1ccc(S(=O)(=O)Nc2ccc(Cl)cc2)cc1[N+](=O)[O-]`, the EC50 was 1.35 µM (active) in series [2] and > 60 µM (not active) in series [3].
With `O=C(NCCCN1CCOCC1)c1cc(C(=O)C2CC2)c[nH]1`, on Cytochrome P450 2C19 (read-out: AC50), the AC50 was 3.98 µM (inconclusive).
As to `CCOc1cc(/C=N/NC(N)=S)cc(Br)c1OCc1ccccc1C`, the EC50 in series [2] is 0.114 µM (active); in series [3] it was > 60 µM (inconclusive).
For `CC(=O)c1cccc(/N=C/C2=C(O)OC3(CCCCC3)OC2=O)c1`, the results for the AC50 on Cytochrome P450 3A4 and at Cytochrome P450 2C19 were 35.5 µM (inconclusive) and “inconclusive”, respectively.
Turning to `CCOc1nn(-c2ccccc2)c(O)c1/C=N/c1ccc(Cl)cc1`, at Cytochrome P450 3A4, the concentration at half-maximal activity (AC50) is 20 µM (inconclusive).
With `C[C@]12CCC3C(CCC4=C/C(=N/OCC(=O)NC(CCC(N)=O)C(=O)O)CC[C@@]43C)C1CCC2O` (some centres undefined), the CC50 in series [1] was 22.6 µM (active).

The values are drawn from ChEMBL document CHEMBL1201862, “PubChem BioAssay data set” (2004).
